Data reported in patent US9273057B2 (Bristol-Myers Squibb Company, priority 2012, dated 2016).
Counter-ions that a name gives are not always drawn.

What follows are compounds tested against CK2A1 (CK2α/β) (Homo sapiens, UniProt P68400) (assay: CK2 kinase assay, CK2A1 (CK2α/β)). Details: Table A; read-out: CK2A1 (CK2α/β) (IC50).
Assay type: biochemical

Sequence of CK2A1 (CK2α/β) (P68400 whole entry, species assumed): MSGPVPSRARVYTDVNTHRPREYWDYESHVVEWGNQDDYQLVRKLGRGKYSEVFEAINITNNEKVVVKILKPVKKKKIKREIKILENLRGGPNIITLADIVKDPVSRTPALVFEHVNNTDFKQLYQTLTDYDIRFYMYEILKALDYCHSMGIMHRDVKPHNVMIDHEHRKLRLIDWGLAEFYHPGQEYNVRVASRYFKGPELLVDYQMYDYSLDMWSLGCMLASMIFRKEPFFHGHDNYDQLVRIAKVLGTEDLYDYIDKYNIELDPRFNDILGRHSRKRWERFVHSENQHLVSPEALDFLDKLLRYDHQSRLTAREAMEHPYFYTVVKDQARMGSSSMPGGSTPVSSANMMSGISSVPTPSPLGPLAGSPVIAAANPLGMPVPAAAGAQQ
Sequence of CK2A1 (CK2α/β) (P67870 whole entry partner, species assumed): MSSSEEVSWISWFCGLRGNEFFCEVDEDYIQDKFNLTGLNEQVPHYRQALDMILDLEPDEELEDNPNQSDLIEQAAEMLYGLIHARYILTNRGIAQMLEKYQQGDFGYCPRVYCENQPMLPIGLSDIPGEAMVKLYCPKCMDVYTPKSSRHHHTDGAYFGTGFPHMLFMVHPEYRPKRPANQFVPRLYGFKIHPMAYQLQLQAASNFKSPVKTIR

SMILES | IC50 [nM]
CCNc1nc(Nc2cc(C#N)cc(N3C[C@@H](C)[C@@H](NC(=O)OC)C3)c2Cl)nn2c(C#N)cnc12 [Example 335, methyl ((3R,4R)-1-(2-chloro-5-cyano-3-((7-cyano-4-(ethylamino)imidazo[2,1-f][1,2,4]triazin-2-yl)amino)phenyl)-4-methyl-3-pyrrolidinyl)carbamate] | 3.97
CC(C)(O)C1CCN(c2cc(C#N)cc(Nc3nc(NC4CC4)c4ncc(C#N)n4n3)c2Cl)CC1 [Example 16, 2-((2-chloro-5-cyano-3-(4-(1-hydroxy-1-methylethyl)-1-piperidinyl)phenyl)amino)-4-(cyclopropylamino)imidazo [2,1-f][1,2,4]triazine-7-carbonitrile] | 1
N#Cc1cc(Nc2nc(NC3CC3)c3ncc(C#N)n3n2)c(OC[C@@H]2COCCN2)cc1F [Example 424, (S)-2-((5-cyano-4-fluoro-2-(morpholin-3-ylmethoxy)phenyl)amino)-4-(cyclopropylamino)imidazo[2,1-f][1,2,4]triazine-7-carbonitrile] | 5.12
CCNc1nc(Nc2cc(C#N)cc(N3CCN(C4(C)COC4)CC3)c2Cl)nn2c(C#N)cnc12 [Example 542, 2-((2-chloro-5-cyano-3-(4-(3-methyloxetan-3-yl)piperazin-1-yl)phenyl)amino)-4-(ethylamino)imidazo[2,1-f][1,2,4]triazine-7-carbonitrile] | 1.35
N#Cc1cc(Nc2nc(NC3CC3)c3ncc(C#N)n3n2)c(Cl)c(N2CCC(NC3CCOC3)CC2)c1 (racemic) [Example 112, (+/−) 2-((2-chloro-5-cyano-3-(4-(tetrahydro-3-furanylamino)-1-piperidinyl)phenyl)amino)-4-(cyclopropylamino)imidazo [2,1-f][1,2,4]triazine-7-carbonitrile] | 2.56
N#Cc1cc(Nc2nc(NC3CC3)c3ncc(C#N)n3n2)c(Cl)c(C2(O)CCN(C3COC3)CC2)c1 [Example 648, 2-((2-chloro-5-cyano-3-(4-hydroxy-1-(oxetan-3-yl)piperidin-4-yl)phenyl)amino)-4-(cyclopropylamino)imidazo[2,1-f][1,2,4]triazine-7-carbonitrile] | 0.85
CCNc1nc(Nc2cc(C#N)cc(N3CCN4C[C@H](O)C[C@H]4C3)c2Cl)nn2c(C#N)cnc12 (racemic) [Example 436, (+/−)-2-((2-chloro-5-cyano-3-((7R,8aS)-7-hydroxyhexahydropyrrolo[1,2-a]pyrazin-2(1H)-yl)phenyl)amino)-4-(ethylamino)imidazo[2,1-f][1,2,4]triazine-7-carbonitrile] | 2.51
CN(C)C(=O)C1CN(c2cc(C#N)cc(Nc3nc(NC4CC4)c4ncc(C#N)n4n3)c2Cl)CCN1CC(F)F (centres unmarked) [Example 565, 4-(2-chloro-5-cyano-3-((7-cyano-4-(cyclopropylamino)imidazo[2,1-f][1,2,4]triazin-2-yl)amino)phenyl)-1-(2,2-difluoroethyl)-N,N-dimethylpiperazine-2-carboxamide] | 180
CCNc1nc(Nc2cc(C#N)cc(N3CC[C@@H](NC(=O)OC)[C@H](N(C)CC(C)(C)O)C3)c2Cl)nn2c(C#N)cnc12 [Example 770, methyl N-[(3R,4R)-1-(2-chloro-5-cyano-3-{[7-cyano-4-(ethylamino)imidazo[2,1-f][1,2,4]triazin-2-yl]amino}phenyl)-3-[(2-hydroxy-2-methylpropyl)(methyl)amino]piperidin-4-yl] carbamate] | 9
CC(C)(O)CN1CCC2CN(c3cc(C#N)cc(Nc4nc(NC5CC5)c5ncc(C#N)n5n4)c3Cl)CCC21 (centres unmarked) [Example 450, 2-((2-chloro-5-cyano-3-(1-(2-hydroxy-2-methylpropyl)hexahydro-1H-pyrrolo[3,2-c]pyridin-5(6H)-yl)phenyl)amino)-4-(cyclopropylamino)imidazo[2,1-f][1,2,4]triazine-7-carbonitrile] | 1.5
CCNc1nc(Nc2cc(C#N)cc(N3CCC(NC(=O)OC)C(N[C@@H](C)C(N)=O)C3)c2Cl)nn2c(C#N)cnc12 (stereo in doubt) [Example 762, methyl N-[(3R,4S)-3-[(1-carbamoylethyl)amino]-1-(2-chloro-5-cyano-3-{[7-cyano-4-(ethylamino)imidazo[2,1-f][1,2,4]triazin-2-yl]amino}phenyl)piperidin-4-yl]carbamate] | 2.1
CC(C)(O)C1CN(C2CCN(c3cc(C#N)cc(Nc4nc(NC5CC5)c5ncc(C#N)n5n4)c3Cl)CC2)CCO1 (racemic) [Example 148, (+/−) 2-((2-chloro-5-cyano-3-(4-(2-(1-hydroxy-1-mcthylethyl)-4-morpholinyl)-1-piperidinyl)phenyl)amino)-4-(cyclopropylamino)imidazo [2,1-f][1,2,4]triazine-7-carbonitrile] | 1.03
CC(C)(C)CNCc1cc(C#N)cc(Nc2nc(NC3CC3)c3ncc(C#N)n3n2)c1Cl [Example 469, 2-[(2-chloro-5-cyano-3-{[(2,2-dimethylpropyl)amino]methyl}phenyl)amino]-4-(cyclopropylamino)imidazo[2,1-f][1,2,4]triazine-7-carbonitrile] | 1.48
CC1(O)CN([C@@H]2CCCN(c3cc(C#N)cc(Nc4nc(NC5CC5)c5ncc(C#N)n5n4)c3Cl)C2)C1 [Example 45, 2-((2-chloro-5-cyano-3-((3R)-3-(3-hydroxy-3-methyl-1-azetidinyl)-1-piperidinyl)phenyl)amino)-4-(cyclopropylamino)imidazo [2,1-f][1,2,4]triazine-7-carbonitrile] | 0.96
CCNc1nc(Nc2cc(C(N)=O)cc(N3CC[C@H](NC(=O)OC)[C@@H](O)C3)c2Cl)nn2c(C#N)cnc12 (racemic) [Example 389, (+/−)-methyl ((3R,4R)-1-(5-carbamoyl-2-chloro-3-((7-cyano-4-(ethylamino)imidazo[2,1-f][1,2,4]triazin-2-yl)amino)phenyl)-3-hydroxypiperidin-4-yl)carbamate] | 3.39
CN1C(=O)CNC12CCN(c1cc(C#N)cc(Nc3nc(NC4CC4)c4ncc(C#N)n4n3)c1Cl)CC2 (racemic) [Example 785, (+/−)-2-((2-chloro-5-cyano-3-(1-methyl-2-oxo-1,4,8-triazaspiro[4.5]decan-8-yl)phenyl)amino)-4-(cyclopropylamino)imidazo[2,1-f][1,2,4]triazine-7-carbonitrile] | 6.67
CO[C@@H]1CN(c2cc(C#N)cc(Nc3nc(NC4CC4)c4ncc(C#N)n4n3)c2Cl)CC1NC1COC1 (stereo in doubt) [Example 302, 2-((2-chloro-5-cyano-3-((3R,4S)-3-methoxy-4-(oxetan-3-ylamino)pyrrolidin-1-yl)phenyl)amino)-4-(cyclopropylamino)imidazo[2,1-f][1,2,4]triazine-7-carbonitrile, HCl] | 1.7

The next lines start with the values.

IC50 [nM] | SMILES
0.45 | N#Cc1cc(CCC2CNCCO2)c(Cl)c(Nc2nc(NC3CC3)c3ncc(C#N)n3n2)c1 (racemic) [Example 739, (+/−)-2-((2-chloro-5-cyano-3-(2-(morpholin-2-yl)ethyl)phenyl)amino)-4-(cyclopropylamino) imidazo[2,1-f][1,2,4]triazine-7-carbonitrile]
0.57 | COCCN1CC(N2CCC(c3cc(C#N)cc(Nc4nc(NC5CC5)c5ncc(C#N)n5n4)c3Cl)CC2)C1 [Example 325, 2-((2-chloro-5-cyano-3-(1-(1-(2-methoxyethyl)-3-azetidinyl)-4-piperidinyl)phenyl)amino)-4-(cyclopropylamino)imidazo [2,1-f][1,2,4]triazine-7-carbonitrile]
0.77 | N#Cc1cc(Nc2nc(NC3CC3)c3ncc(C#N)n3n2)c(Cl)c(N2CC[C@@H](NC(=O)OCCN3CCOCC3)[C@H](O)C2)c1 [Example 178, 2-morpholinoethyl ((3R,4R)-1-(2-chloro-5-cyano-3-((7-cyano-4-(cyclopropylamino)imidazo[2,1-f][1,2,4]triazin-2-yl)amino)phenyl)-3-hydroxypiperidin-4-yl)carbamate]
0.76 | N#Cc1cnc2c(NC3CC3)nc(Nc3cc(C(F)F)cc(N4CC(N5CCOCC5)C4)c3Cl)nn12 [Example 279, 2-((2-chloro-5-(difluoromethyl)-3-(3-(4-morpholinyl)-1-azetidinyl)phenyl)amino)-4-(cyclopropylamino)imidazo[2,1-f][1,2,4]triazine-7-carbonitrile]
0.75 | N#Cc1cnc2c(NC3CC3)nc(Nc3cc(C(F)F)cc(N4CCC(NC5COC5)CC4)c3Cl)nn12 [Example 256, 2-((2-chloro-5-(difluoromethyl)-3-(4-(3-oxetanylamino)-1-piperidinyl)phenyl)amino)-4-(cyclopropylamino)imidazo[2,1-f][1,2,4]triazine-7-carbonitrile]
0.83 | N#Cc1cc(Nc2nc(NC3CC3)c3ncc(C#N)n3n2)c(Cl)c(N2CCN3C[C@@H](F)C[C@H]3C2)c1 (racemic) [Example 437, (+/−)-2-((2-chloro-5-cyano-3-((7R,8aR)-7-fluorohexahydropyrrolo[1,2-a]pyrazin-2(1H)-yl)phenyl)amino)-4-(cyclopropylamino)imidazo[2,1-f][1,2,4]triazine-7-carbonitrile]
0.8 | C[C@H]1OCC[C@@H]1NC1CCN(c2cc(C#N)cc(Nc3nc(NC4CC4)c4ncc(C#N)n4n3)c2Cl)CC1 (racemic) [Example 122, (+/−) 2-((2-chloro-5-cyano-3-(4-(((2R,3S)-2-methyltetrahydro-3-furanyl)amino)-1-piperidinyl)phenyl)amino)-4-(cyclopropylamino)imidazo [2,1-f][1,2,4]triazine-7-carbonitrile]
0.61 | CC(=O)NN1CCN(c2cc(C#N)cc(Nc3nc(NC4CC4)c4ncc(C#N)n4n3)c2Cl)CC1 [Example 789, N-(4-(2-chloro-5-cyano-3-((7-cyano-4-(cyclopropylamino)imidazo[2,1-f][1,2,4]triazin-2-yl)amino)phenyl)piperazin-1-yl)acetamide]
0.53 | N#Cc1cc(Nc2nc(NC3CC3)c3ncc(C#N)n3n2)c(Cl)c(N2CCN(C(=O)CCO)CC2)c1 [Example 90, 2-(2-chloro-5-cyano-3-(4-(3-hydroxypropanoyl)piperazin-1-yl)phenylamino)-4-(cyclopropylamino) imidazo[1,2-f][1,2,4] triazine-7-carbonitrile]
